According to US9669003B2, “Use of flavone and flavanone derivatives in preparation of sedative and hypnotic drugs” (priority 2012, dated 2017):
Marks after values point to notes of the source that are not given here.

System: Kunming mice
Assay: Influence on autonomic activity of normal mice (ZIL-2 mice autonomic activity meter, counts within 10 min)
Assay type: in vivo
Conditions: intragastric, 25 mg/kg, 1 h after administration, x ± s, n = 10
Outline: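 Activity counts during a 10-min window were taken at 1, 2 and 24 h after dosing in groups of 10 mixed-sex Kunming mice. Compounds were given in 0.5% CMC-Na at 25, 50 or 100 mg/kg. Statistics used Levene's homogeneity test, ANOVA and Dunnett's multiple comparisons.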

Row | Molecule | Times of activities in 1 h after drug administration/10 min
1 | COc1cc(OC)cc(C2CC(=O)c3c(OC)cc(OC)cc3O2)c1 (stereo not drawn) [Example 49] | 305.2 ± 78.7 /10 min
2 | 6,7,8,4′-tetramethoxyl-flavone [Example 6] | 330.1 ± 51.2 /10 min
3 | CCCc1cc(O)cc2c1C(=O)CC(c1ccc(-c3ccccc3)c([N+](=O)[O-])c1)O2 (stereo not drawn) [Example 70] | 233.5 ± 58.2 /10 min

Same assay, conditions: intragastric, 25 mg/kg, 2 h after administration, x ± s, n = 10

Row | Molecule | Times of activities in 2 h after drug administration/10 min
4 | COc1cc(OC)cc(C2CC(=O)c3c(OC)cc(OC)cc3O2)c1 (stereo not drawn) [Example 49] | 299.8 ± 94.1 /10 min
5 | 6,7,8,4′-tetramethoxyl-flavone [Example 6] | 314.5 ± 56.7 /10 min
6 | CCCc1cc(O)cc2c1C(=O)CC(c1ccc(-c3ccccc3)c([N+](=O)[O-])c1)O2 (stereo not drawn) [Example 70] | 227.8 ± 32.9 /10 min

Same assay, conditions: intragastric, 25 mg/kg, 24 h after administration, x ± s, n = 10

Row | Molecule | Times of activities in 24 h after drug administration/10 min
7 | COc1cc(OC)cc(C2CC(=O)c3c(OC)cc(OC)cc3O2)c1 (stereo not drawn) [Example 49] | 281.4 ± 94.3 /10 min
8 | 6,7,8,4′-tetramethoxyl-flavone [Example 6] | 338.1 ± 96.3 /10 min
9 | CCCc1cc(O)cc2c1C(=O)CC(c1ccc(-c3ccccc3)c([N+](=O)[O-])c1)O2 (stereo not drawn) [Example 70] | 316.0 ± 66.9 /10 min

Same assay, conditions: intragastric, 50 mg/kg, 1 h after administration, x ± s, n = 10

Row | Molecule | Times of activities in 1 h after drug administration/10 min
10 | COc1cc(OC)cc(C2CC(=O)c3c(OC)cc(OC)cc3O2)c1 (stereo not drawn) [Example 49] | 267.9 ± 21.5 /10 min
11 | 6,7,8,4′-tetramethoxyl-flavone [Example 6] | 286.7 ± 61.7 /10 min
12 | CCCc1cc(O)cc2c1C(=O)CC(c1ccc(-c3ccccc3)c([N+](=O)[O-])c1)O2 (stereo not drawn) [Example 70] | 159.9 ± 45.0 /10 min

Same assay, conditions: intragastric, 50 mg/kg, 2 h after administration, x ± s, n = 10

Row | Molecule | Times of activities in 2 h after drug administration/10 min
13 | COc1cc(OC)cc(C2CC(=O)c3c(OC)cc(OC)cc3O2)c1 (stereo not drawn) [Example 49] | 246.6 ± 13.9 /10 min
14 | 6,7,8,4′-tetramethoxyl-flavone [Example 6] | 279.5 ± 48.2 /10 min
15 | CCCc1cc(O)cc2c1C(=O)CC(c1ccc(-c3ccccc3)c([N+](=O)[O-])c1)O2 (stereo not drawn) [Example 70] | 141.0 ± 46.3 /10 min

Same assay, conditions: intragastric, 50 mg/kg, 24 h after administration, x ± s, n = 10

Row | Molecule | Times of activities in 24 h after drug administration/10 min
16 | COc1cc(OC)cc(C2CC(=O)c3c(OC)cc(OC)cc3O2)c1 (stereo not drawn) [Example 49] | 274.2 ± 34.8 /10 min
17 | 6,7,8,4′-tetramethoxyl-flavone [Example 6] | 311.5 ± 91.5 /10 min
18 | CCCc1cc(O)cc2c1C(=O)CC(c1ccc(-c3ccccc3)c([N+](=O)[O-])c1)O2 (stereo not drawn) [Example 70] | 320.9 ± 81.4 /10 min

Same assay, conditions: intragastric, 100 mg/kg, 1 h after administration, x ± s, n = 10

Row | Molecule | Times of activities in 1 h after drug administration/10 min
19 | COc1cc(OC)cc(C2CC(=O)c3c(OC)cc(OC)cc3O2)c1 (stereo not drawn) [Example 49] | 179.9 ± 35.9 /10 min
20 | 6,7,8,4′-tetramethoxyl-flavone [Example 6] | 238.3 ± 36.3 /10 min
21 | CCCc1cc(O)cc2c1C(=O)CC(c1ccc(-c3ccccc3)c([N+](=O)[O-])c1)O2 (stereo not drawn) [Example 70] | 129.3 ± 41.3 /10 min

Same assay, conditions: intragastric, 100 mg/kg, 2 h after administration, x ± s, n = 10

Row | Molecule | Times of activities in 2 h after drug administration/10 min
22 | COc1cc(OC)cc(C2CC(=O)c3c(OC)cc(OC)cc3O2)c1 (stereo not drawn) [Example 49] | 170.5 ± 34.1 /10 min
23 | 6,7,8,4′-tetramethoxyl-flavone [Example 6] | 249.8 ± 45.8 /10 min
24 | CCCc1cc(O)cc2c1C(=O)CC(c1ccc(-c3ccccc3)c([N+](=O)[O-])c1)O2 (stereo not drawn) [Example 70] | 117.8 ± 39.6 /10 min

Same assay, conditions: intragastric, 100 mg/kg, 24 h after administration, x ± s, n = 10

Row | Molecule | Times of activities in 24 h after drug administration/10 min
25 | COc1cc(OC)cc(C2CC(=O)c3c(OC)cc(OC)cc3O2)c1 (stereo not drawn) [Example 49] | 286.1 ± 12.7 /10 min
26 | 6,7,8,4′-tetramethoxyl-flavone [Example 6] | 308.2 ± 82.7 /10 min
27 | CCCc1cc(O)cc2c1C(=O)CC(c1ccc(-c3ccccc3)c([N+](=O)[O-])c1)O2 (stereo not drawn) [Example 70] | 320.7 ± 60.9 /10 min

System: Kunming mice
Assay: Influence on hypnosis effect with pentobarbital sodium doses below the threshold (25 mg/kg i.p.)
Assay type: in vivo
Conditions: test drug 25 mg/kg intragastric single dose, pentobarbital sodium 25 mg/kg i.p. 60 min later, sleep observed in 30 min, n = 10
Outline: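 Percentage of mice sleeping within 30 min after subthreshold pentobarbital sodium (25 mg/kg i.p.), defined by loss of righting reflex over 1 min, analysed by χ2. Compound in 0.5% CMC-Na given intragastrically at 25/50/100 mg/kg 60 min before; groups of 10 Kunming mice, both sexes.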

Row | Molecule | Number of sleeping animals | rate of sleeping (%)
28 | COc1cc(OC)cc(C2CC(=O)c3c(OC)cc(OC)cc3O2)c1 (stereo not drawn) [Example 49] | 4 | 40* %
29 | 6,7,8,4′-tetramethoxyl-flavone [Example 6] | 3 | 30%
30 | CCCc1cc(O)cc2c1C(=O)CC(c1ccc(-c3ccccc3)c([N+](=O)[O-])c1)O2 (stereo not drawn) [Example 70] | 6 | 60** %

Same assay, conditions: test drug 50 mg/kg intragastric single dose, pentobarbital sodium 25 mg/kg i.p. 60 min later, sleep observed in 30 min, n = 10

Row | Molecule | Number of sleeping animals | rate of sleeping (%)
31 | COc1cc(OC)cc(C2CC(=O)c3c(OC)cc(OC)cc3O2)c1 (stereo not drawn) [Example 49] | 6 | 60** %
32 | 6,7,8,4′-tetramethoxyl-flavone [Example 6] | 5 | 50** %
33 | CCCc1cc(O)cc2c1C(=O)CC(c1ccc(-c3ccccc3)c([N+](=O)[O-])c1)O2 (stereo not drawn) [Example 70] | 8 | 80*** %

Same assay, conditions: test drug 100 mg/kg intragastric single dose, pentobarbital sodium 25 mg/kg i.p. 60 min later, sleep observed in 30 min, n = 10

Row | Molecule | Number of sleeping animals | rate of sleeping (%)
34 | COc1cc(OC)cc(C2CC(=O)c3c(OC)cc(OC)cc3O2)c1 (stereo not drawn) [Example 49] | 7 | 70** %
35 | 6,7,8,4′-tetramethoxyl-flavone [Example 6] | 6 | 60** %
36 | CCCc1cc(O)cc2c1C(=O)CC(c1ccc(-c3ccccc3)c([N+](=O)[O-])c1)O2 (stereo not drawn) [Example 70] | 9 | 90*** %

System: Kunming mice
Assay: Influence on hypnosis effect with pentobarbital sodium doses at the threshold (50 mg/kg i.p.)
Assay type: in vivo
Conditions: 25 mg/kg intragastric single dose, pentobarbital sodium 50 mg/kg i.p. 60 min later, x ± s, n = 10
Outline: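 Pentobarbital sodium (0.3%, 50 mg/kg i.p.) injected 60 min after a single intragastric dose (25, 50, 100 mg/kg, 0.5% CMC-Na vehicle) in Kunming mice, 10 per group, sexes balanced. Onset and length of sleep (righting reflex lost over 1 min) analysed by ANOVA; sleeping incidence by χ2 test.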

Row | Molecule | duration of sleep [min] | time to sleep [min]
37 | COc1cc(OC)cc(C2CC(=O)c3c(OC)cc(OC)cc3O2)c1 (stereo not drawn) [Example 49] | 37.90 ± 13.18 | 4.59 ± 1.55
38 | 6,7,8,4′-tetramethoxyl-flavone [Example 6] | 29.81 ± 21.65 | 5.51 ± 1.39
39 | CCCc1cc(O)cc2c1C(=O)CC(c1ccc(-c3ccccc3)c([N+](=O)[O-])c1)O2 (stereo not drawn) [Example 70] | 47.57 ± 18.97 | 3.60 ± 1.69

Same assay, conditions: 50 mg/kg intragastric single dose, pentobarbital sodium 50 mg/kg i.p. 60 min later, x ± s, n = 10

Row | Molecule | duration of sleep [min] | time to sleep [min]
40 | COc1cc(OC)cc(C2CC(=O)c3c(OC)cc(OC)cc3O2)c1 (stereo not drawn) [Example 49] | 40.75 ± 23.05 | 3.69 ± 1.32
41 | 6,7,8,4′-tetramethoxyl-flavone [Example 6] | 47.21 ± 22.93 | 4.20 ± 1.40
42 | CCCc1cc(O)cc2c1C(=O)CC(c1ccc(-c3ccccc3)c([N+](=O)[O-])c1)O2 (stereo not drawn) [Example 70] | 61.38 ± 27.39 | 3.21 ± 1.35

Same assay, conditions: 100 mg/kg intragastric single dose, pentobarbital sodium 50 mg/kg i.p. 60 min later, x ± s, n = 10

Row | Molecule | duration of sleep [min] | time to sleep [min]
43 | COc1cc(OC)cc(C2CC(=O)c3c(OC)cc(OC)cc3O2)c1 (stereo not drawn) [Example 49] | 57.65 ± 17.87 | 3.38 ± 1.29
44 | 6,7,8,4′-tetramethoxyl-flavone [Example 6] | 55.33 ± 19.32 | 3.91 ± 2.16
45 | CCCc1cc(O)cc2c1C(=O)CC(c1ccc(-c3ccccc3)c([N+](=O)[O-])c1)O2 (stereo not drawn) [Example 70] | 73.09 ± 25.56 | 2.28 ± 1.13
